Among the data in patent US20250092065A1, “2-(INDAZOL-5-YL)-6-(PIPERIDIN-4-YL)-1,7-NAPHTHYRIDINE DERIVATIVES AND RELATED COMPOUNDS AS MODULATORS FOR SPLICING NUCLEIC ACIDS AND FOR THE TREATMENT OF PROLIFERATIVE DISEASES” (REMIX THERAPEUTICS INC., priority 2022, published 2025) are IC50 and AC50 values, retold here.

Read-outs that look alike come from different tables or passages of the source. A value given as a limit tells only on which side of the number the result lay.

What all share (type): cell-based, human
The test system of experiment [1] is MYB. The experiment in a line: HiBiT protein abundance assay, MYB (K562 HiBiT knock-in). As to conditions: HiBiT knock-in K562 cells, 24 hours, top dose 10 μM. A digest of the protocol: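 Luminescence readout: Nano-Glo HiBiT lytic detection after 24 h compound exposure of K562 HiBiT knock-in cells, 10000 cells/well. Dosing 10-pt, 3-fold, top 10 μM final. % response vs untreated parental K562 and DMSO controls; 4PL fit, IC50 = concentration giving 50% protein abundance.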

Experiment [2] concerns SMN2 mRNA. The experiment in a line: RT-qPCR splicing assay, SMN2 mRNA. As to conditions: Homo sapiens, canonical junction qPCR panel, Table 4; read-out: SMN2 IC50 (decrease in CJ mRNA levels). Put shortly:
(§1)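 A673 or K562 cells treated 24 h at 37 °C with an 11-point 3-fold dilution series (top 10 uM, DMSO ≤0.25%). Lysates went directly to one-step RT-qPCR quantifying canonical (CJ) and alternative-exon (AJ) junctions, normalized to GAPDH, GUSB or PPIA. Values from ΔΔCt versus DMSO, RQ = 2^(−ΔΔCt), expressed as percentage response.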
Background: Quantitative PCR measures a nucleic acid by following its amplification.

The test system of experiment [3] is Target C. The experiment in a line: HiBiT protein abundance assay, Target C (K562 HiBiT knock-in). As to conditions: HiBiT knock-in K562 cells, 24 hours, top dose 10 μM. Put shortly:
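K562 HiBiT knock-in cells (10000/well) were treated 24 h at 37° C with a 10-point 3-fold dilution series (top 10 μM final, ≤0.25% DMSO). HiBiT luminescence was read after lytic LgBiT detection. Percent response used unmodified K562 and DMSO-treated knock-in controls, and IC50 came from a four-parameter fit at 50% of untreated.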
For orientation: The HiBiT peptide binds its large partner to form an active luciferase.

For experiment [4], the system named is MYB mRNA. The experiment in a line: RT-qPCR splicing assay, MYB mRNA canonical (CJ) and alternative (AJ) junction. Conditions: Homo sapiens; for AC50: MYB alternative junction mRNA, read-out: MYB AJ (increase in AJ mRNA, AC50). Put shortly: as §1
[5] abbreviates: MYB canonical junction mRNA, RT-qPCR, read-out: MYB CJ (decrease in CJ mRNA levels, IC50).
Setting [6] is: canonical junction qPCR panel, Table 4, read-out: MYB IC50 (decrease in CJ mRNA levels).

Usually IC50 stands for the concentration needed to halve the response being measured. One may read the AC50 as the midpoint of the concentration-response curve, whichever way the signal moves. As to `Cc1nc2c(C)c(O)c(-c3ccc4nc(N5CC[C@@H](NC6CCC6)C5)ccc4n3)cc2o1` [Compound 236], the IC50 in experiment [1], in experiment [2], in experiment [3], in experiment [4] (setting [5]) and in experiment [4] (setting [6]) was below 100 nM in each case. In addition, the AC50 in experiment [4] (RT-qPCR) was below 100 nM.
On to `Cc1nc2c(C)c(O)c(-c3ccc4nc(N5CC[C@H](NC6CCC6)C5)ccc4n3)cc2o1` [Compound 237], for which the IC50 in experiment [1], in experiment [2], in experiment [3], in experiment [4] (setting [5]) and in experiment [4] (setting [6]) was below 100 nM throughout. In addition, in experiment [4] (RT-qPCR), the AC50 is below 100 nM.
`Cc1cc(-c2ccc3nc(N4CCC(NC(C)(C)C)C4)ccc3n2)nc2cn(C)nc12` (stereo not drawn) [Compound 248]: the IC50 in experiment [1] was 1000 to 10000 nM; in experiment [2], 100 to 1000 nM; in experiment [3] it was 100 to 1000 nM; in experiment [4] (setting [5]) it was 1000 to 10000 nM; in experiment [4] (setting [6]), 1000 to 10000 nM. Besides, the AC50 in experiment [4] (RT-qPCR) lay within 1000 to 10000 nM.
Turning to `Cc1c(O)c(-c2ccc3nc(N4CC[C@@H](NC(C)(C)C)C4)ccc3n2)cc2cn(C)nc12` [Compound 249], the IC50 in experiment [1], in experiment [2], in experiment [3], in experiment [4] (setting [5]) and in experiment [4] (setting [6]) was below 100 nM in each case. For the same compound, the AC50 in experiment [4] (RT-qPCR) was below 100 nM.
In the case of `Cc1c(O)c(-c2ccc3nc(N4CC[C@H](NC(C)(C)C)C4)ccc3n2)cc2cn(C)nc12` [Compound 250], the IC50 in experiment [1], in experiment [2], in experiment [3], in experiment [4] (setting [5]) and in experiment [4] (setting [6]) was below 100 nM in each case. Also, the AC50 in experiment [4] (RT-qPCR) was below 100 nM.
Regarding `COc1c(-c2ccc3nc(N4CCC(NC(C)(C)C)C4)ccc3n2)cc2c[nH]nc2c1C` (stereo not drawn) [Compound 251], the IC50 was above 10000 nM in experiment [1]; above 10000 nM in experiment [2]; 100 to 1000 nM in experiment [3]; above 10000 nM in experiment [4] (setting [5]); above 10000 nM in experiment [4] (setting [6]). In addition, the AC50 in experiment [4] (RT-qPCR) is above 10000 nM.
On to `Cc1cn2nc(-c3ccc4nc(N5CCC(NC6CC6)C5)ccc4n3)c(O)c2c(C)n1` (stereo not drawn) [Compound 252], for which the IC50 in experiment [1] is 100 to 1000 nM; in experiment [2], below 100 nM; in experiment [3], 100 to 1000 nM; in experiment [4] (setting [5]), 100 to 1000 nM; in experiment [4] (setting [6]), 100 to 1000 nM. Further, the AC50 in experiment [4] (RT-qPCR) was in the range of 100 to 1000 nM.
On to `Cc1c(O)c(-c2ccc3nc(N4CCC(NCC5CC5)C4)ccc3n2)cc2cn(C)nc12` (stereo not drawn) [Compound 284, 5-(6-{3-[(cyclopropylmethyl)amino]pyrrolidin-1-yl}-1,5-naphthyridin-2-yl)-2,7-dimethylindazol-6-ol], for which the IC50 in experiment [1], in experiment [2], in experiment [3], in experiment [4] (setting [5]) and in experiment [4] (setting [6]) was below 100 nM each time. Further, the AC50 in experiment [4] (RT-qPCR) lay within 100 to 1000 nM.
As for `Cc1c(O)c(-c2ccc3nc(N4CCC(NC5CCC5)C4)ccc3n2)cc2cn(C)nc12` (stereo not drawn) [Compound 288, 5-{6-[3-(cyclobutylamino)pyrrolidin-1-yl]-1,5-naphthyridin-2-yl}-2,7-dimethylindazol-6-ol], the IC50 in experiment [1], in experiment [2], in experiment [3], in experiment [4] (setting [5]) and in experiment [4] (setting [6]) was below 100 nM in each case. Moreover, the AC50 in experiment [4] (RT-qPCR) is below 100 nM.
For the compound `Cc1nc2c(F)c(O)c(-c3ccc4nc(N5CCC(NC6CCC6)C5)ccc4n3)cc2o1` (stereo not drawn) [Compound 293, 6-{6-[3-(cyclobutylamino)pyrrolidin-1-yl]-1,5-naphthyridin-2-yl}-4-fluoro-2-methyl-1,3-benzoxazol-5-ol], the IC50 in experiment [1], in experiment [2], in experiment [3], in experiment [4] (setting [5]) and in experiment [4] (setting [6]) was below 100 nM in each case. In addition, in experiment [4] (RT-qPCR), the AC50 is below 100 nM.
As for `Cn1cc2cc(-c3ccc4nc(N5CCC(NC67CC(C6)C7)C5)ccc4n3)c(O)cc2n1` (stereo not drawn) [Compound 297, 5-[6-(3-{bicyclo[1.1.1]pentan-1-ylamino}pyrrolidin-1-yl)-1,5-naphthyridin-2-yl]-2-methylindazol-6-ol], the half-maximal inhibitory concentration (IC50) in experiment [1] was in the range of 1000 to 10000 nM; in experiment [2], 100 to 1000 nM; in experiment [3], 1000 to 10000 nM; in experiment [4] (setting [5]), 1000 to 10000 nM; in experiment [4] (setting [6]), 1000 to 10000 nM. Moreover, the AC50 in experiment [4] (RT-qPCR) lay in the range of 100 to 1000 nM.
Take `Cn1cc2nc(-c3ccc4nc(N5CCC(NC(C)(C)C)C5)ccc4n3)c(O)cc2n1` (stereo not drawn) [Compound 298, 5-{6-[3-(tert-butylamino)pyrrolidin-1-yl]-1,5-naphthyridin-2-yl}-2-methylpyrazolo[4,3-b]pyridin-6-ol]: the IC50 in experiment [1], in experiment [2], in experiment [3], in experiment [4] (setting [5]) and in experiment [4] (setting [6]) was below 100 nM in each case. In addition, the AC50 in experiment [4] (RT-qPCR) is below 100 nM.
For `Cn1cc2cc(-c3ccc4nc(N5CC[C@H](N[C@H]6C[C@@H](F)C6)C5)ccc4n3)c(O)cc2n1` [Compound 299, 2-methyl-5-{6-[(3S)-3-{[(1s,3s)-3-fluorocyclobutyl]amino}pyrrolidin-1-yl]-1,5-naphthyridin-2-yl}indazol-6-ol], the IC50 in experiment [1] was below 100 nM; in experiment [2] it was below 100 nM; in experiment [3] it was 100 to 1000 nM; in experiment [4] (setting [5]), below 100 nM; in experiment [4] (setting [6]), below 100 nM. Further, the AC50 in experiment [4] (RT-qPCR) is below 100 nM.
Consider `Cc1c(O)c(-c2ccc3nc(N4CCC(NC5COC5)C4)ccc3n2)cc2cn(C)nc12` (stereo not drawn) [Compound 302, 2,7-dimethyl-5-{6-[3-(oxetan-3-ylamino)pyrrolidin-1-yl]-1,5-naphthyridin-2-yl}Indazol-6-ol], for which the IC50 in experiment [1] was 100 to 1000 nM; in experiment [2], below 100 nM; in experiment [3], 100 to 1000 nM; in experiment [4] (setting [5]) it was 100 to 1000 nM; in experiment [4] (setting [6]), 100 to 1000 nM. In addition, in experiment [4] (RT-qPCR), the AC50 lay in the range of 100 to 1000 nM.
Turning to `Cc1nc2c(C)c(O)c(-c3ccc4nc(N5CCC(NC6(C)CC6)C5)ccc4n3)cc2o1` (stereo not drawn) [Compound 309, 2,4-dimethyl-6-(6-{3-[(1-methylcyclopropyl)amino]pyrrolidin-1-yl}-1,5-naphthyridin-2-yl)-1,3-benzoxazol-5-ol], the half-inhibitory concentration (IC50) in experiment [1], in experiment [2], in experiment [3], in experiment [4] (setting [5]) and in experiment [4] (setting [6]) was below 100 nM in each case. Also, the AC50 in experiment [4] (RT-qPCR) was below 100 nM.
With `Cc1nc2c(C)c(O)c(-c3ccc4nc(N5CCC(NC(C)C)C5)ccc4n3)cc2o1` (stereo not drawn) [Compound 312, 6-{6-[3-(isopropylamino)pyrrolidin-1-yl]-1,5-naphthyridin-2-yl}-2,4-dimethyl-1,3-benzoxazol-5-ol], the IC50 in experiment [1], in experiment [2], in experiment [3], in experiment [4] (setting [5]) and in experiment [4] (setting [6]) was below 100 nM throughout. In addition, the AC50 in experiment [4] (RT-qPCR) is below 100 nM.
With `Cn1cc2cc(-c3ccc4nc(N5CCC(NC6CCC6)C5)ccc4n3)c(O)c(F)c2n1` (stereo not drawn) [Compound 315, 5-{6-[3-(cyclobutylamino)pyrrolidin-1-yl]-1,5-naphthyridin-2-yl}-7-fluoro-2-methylindazol-6-ol], the IC50 in experiment [1], in experiment [2], in experiment [3], in experiment [4] (setting [5]) and in experiment [4] (setting [6]) was below 100 nM in each case. For the same compound, the half-maximal activity concentration (AC50) in experiment [4] (RT-qPCR) was below 100 nM.
Turning to `Cc1c(O)c(-c2ccc3nc(N4CCC(NC(C)C)C4)ccc3n2)cc2cn(C)nc12` (stereo not drawn) [Compound 318, 5-{6-[3-(isopropylamino)pyrrolidin-1-yl]-1,5-naphthyridin-2-yl}-2,7-dimethylindazol-6-ol], the half-inhibitory concentration (IC50) in experiment [1], in experiment [2], in experiment [3], in experiment [4] (setting [5]) and in experiment [4] (setting [6]) was below 100 nM each time. In addition, the AC50 in experiment [4] (RT-qPCR) was below 100 nM.
For `Cc1c(O)c(-c2ccc3nc(N4CC[C@H](NC(C)C)C4)ccc3n2)cc2cn(C)nc12` [Compound 320], the IC50 in experiment [1], in experiment [2], in experiment [3], in experiment [4] (setting [5]) and in experiment [4] (setting [6]) was below 100 nM throughout. Moreover, the AC50 in experiment [4] (RT-qPCR) was below 100 nM.
Take `Cc1nc2c(F)c(O)c(-c3ccc4nc(N5CCC(NC6(C)CC6)C5)ccc4n3)cc2o1` (stereo not drawn) [Compound 325, 4-fluoro-2-methyl-6-(6-{3-[(1-methylcyclopropyl)amino]pyrrolidin-1-yl}-1,5-naphthyridin-2-yl)-1,3-benzoxazol-5-ol]: the IC50 in experiment [1], in experiment [2], in experiment [3], in experiment [4] (setting [5]) and in experiment [4] (setting [6]) was below 100 nM in each case. The AC50 in experiment [4] (RT-qPCR) is below 100 nM.
